The source of these data is US7097865B2, “Inhibition of CYP450 1A2, 2A6, 2C9, 2C19, 2D6, 2E1, and 3A4 in cryopreserved human hepatocytes by a Tripterygium Wilfordii Hook. F. extract” (Novemed Group Limited, priority 2002, dated 2006).

A word on the inhibition: it is the share of the control response that was lost under treatment. Lower therefore signals a weak effect.

Structures are written as SMILES.

The target of series [1] is T1, CYP2C9 (Homo sapiens, UniProt P11712). To be noted: Sulfaphenazole 10 μM.
T1 sequence (P11712 whole entry): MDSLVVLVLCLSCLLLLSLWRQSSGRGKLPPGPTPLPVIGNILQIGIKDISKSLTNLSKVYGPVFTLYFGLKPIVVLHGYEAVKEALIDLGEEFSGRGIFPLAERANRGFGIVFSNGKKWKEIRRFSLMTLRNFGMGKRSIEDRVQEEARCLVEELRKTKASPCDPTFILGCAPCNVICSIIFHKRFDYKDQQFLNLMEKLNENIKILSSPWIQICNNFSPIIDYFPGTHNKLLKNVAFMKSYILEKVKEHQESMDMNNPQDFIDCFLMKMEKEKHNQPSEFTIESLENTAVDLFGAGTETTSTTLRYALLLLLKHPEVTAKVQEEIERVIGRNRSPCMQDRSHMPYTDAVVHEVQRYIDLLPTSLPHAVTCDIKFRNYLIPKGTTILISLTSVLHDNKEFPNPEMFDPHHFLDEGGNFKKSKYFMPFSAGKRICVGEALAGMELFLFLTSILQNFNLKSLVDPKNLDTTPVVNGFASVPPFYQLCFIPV
Series [2] concerns the target T1, CYP2C9. Kind of series: in vitro. To be noted: both, hepatocytes.
A further series concerns the target CYP2C19 (Homo sapiens, UniProt P33261). In words: in vitro. To be noted: both, pooled cryopreserved human hepatocytes in suspension, probe S-mephenytoin (20 μM).
In the next series the target is CYP2A6 (Homo sapiens, UniProt P11509). To be noted: Tranylcypromine 3 μM.
Sequence of CYP2A6 (P11509 whole entry): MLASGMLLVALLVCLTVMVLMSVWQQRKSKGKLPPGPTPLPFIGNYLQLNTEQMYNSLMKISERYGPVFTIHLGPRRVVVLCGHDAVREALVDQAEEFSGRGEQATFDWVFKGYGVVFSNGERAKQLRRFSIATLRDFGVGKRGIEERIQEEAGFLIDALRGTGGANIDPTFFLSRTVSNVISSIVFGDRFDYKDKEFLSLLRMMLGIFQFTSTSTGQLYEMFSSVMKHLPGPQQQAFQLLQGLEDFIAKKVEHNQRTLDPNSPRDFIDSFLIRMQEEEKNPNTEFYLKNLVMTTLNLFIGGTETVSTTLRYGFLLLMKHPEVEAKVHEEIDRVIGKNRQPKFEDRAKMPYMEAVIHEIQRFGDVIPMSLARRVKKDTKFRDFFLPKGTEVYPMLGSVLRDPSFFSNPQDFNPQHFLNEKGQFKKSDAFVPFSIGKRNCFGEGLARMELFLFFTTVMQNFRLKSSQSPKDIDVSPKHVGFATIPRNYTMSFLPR
For the next series, the target named is CYP1A2 (Homo sapiens, UniProt P05177). Kind of series: in vitro. The following applies: both, hepatocytes. An excerpt: CYP1A2 activity was characterized by the formation of acetaminophen from phenacetin.
Sequence of CYP1A2 (P05177 whole entry): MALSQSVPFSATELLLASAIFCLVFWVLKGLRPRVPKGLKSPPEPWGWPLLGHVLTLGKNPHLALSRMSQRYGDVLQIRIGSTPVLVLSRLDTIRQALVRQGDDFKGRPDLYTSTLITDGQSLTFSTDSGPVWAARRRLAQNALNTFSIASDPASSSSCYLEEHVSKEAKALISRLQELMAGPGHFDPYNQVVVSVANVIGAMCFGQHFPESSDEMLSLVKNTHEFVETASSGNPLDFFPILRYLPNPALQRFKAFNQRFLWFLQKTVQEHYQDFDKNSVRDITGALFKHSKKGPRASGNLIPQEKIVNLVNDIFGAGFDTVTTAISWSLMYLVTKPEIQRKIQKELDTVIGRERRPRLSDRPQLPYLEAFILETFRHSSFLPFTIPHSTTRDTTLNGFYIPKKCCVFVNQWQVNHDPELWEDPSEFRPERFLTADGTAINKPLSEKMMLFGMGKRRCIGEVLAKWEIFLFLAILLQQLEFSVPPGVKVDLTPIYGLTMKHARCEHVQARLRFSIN

Sequence of CYP2C19 (P33261 whole entry): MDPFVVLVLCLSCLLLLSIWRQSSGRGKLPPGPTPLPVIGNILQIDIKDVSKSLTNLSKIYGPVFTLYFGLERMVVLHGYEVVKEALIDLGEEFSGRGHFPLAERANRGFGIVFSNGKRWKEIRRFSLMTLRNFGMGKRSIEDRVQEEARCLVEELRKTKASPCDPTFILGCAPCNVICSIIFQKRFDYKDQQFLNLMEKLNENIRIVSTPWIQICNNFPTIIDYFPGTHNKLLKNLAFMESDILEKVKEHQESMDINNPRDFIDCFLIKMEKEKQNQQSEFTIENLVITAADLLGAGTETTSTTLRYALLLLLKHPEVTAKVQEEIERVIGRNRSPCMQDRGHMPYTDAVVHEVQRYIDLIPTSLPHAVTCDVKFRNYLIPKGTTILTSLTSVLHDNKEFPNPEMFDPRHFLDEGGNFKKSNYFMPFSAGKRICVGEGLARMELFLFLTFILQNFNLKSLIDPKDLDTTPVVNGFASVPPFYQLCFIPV

In the case of `Nc1ccc(S(=O)(=O)Nc2ccnn2-c2ccccc2)cc1` [Sulfaphenazole, sulfaphenazole], the “CYP2C9 % Inhibition” value at CYP2C9 [1] is listed as 95.0%. The compound further had an activity at 60 min, 10 μM on CYP2C9 [2] of 5.02%.

As for `COc1ccc2[nH]c([S+]([O-])Cc3ncc(C)c(OC)c3C)nc2c1` (centres unmarked) [Omeprazole, omeprazole], at CYP2C19, the activity at 60 min, 25 μM was determined as 73.6% and the inhibition at 60 min, 25 μM was found to be 26.4%.

Consider `N[C@@H]1C[C@H]1c1ccccc1` (racemic) [Tranylcypromine, tranylcypromine], for which, at CYP2A6, the “CYP2A6 % Inhibition” value stood at 64.1% and the “CYP2A6 activity % VC” value worked out at 35.9%.

With `Cc1nc2c([nH]1)c(=O)n(C)c(=O)n2Cc1ccco1` [Furafylline, furafylline], at CYP1A2, the activity at 60 min, 1 μM was determined as 27.9% and the inhibition at 60 min, 1 μM came to 72.1%.
